Test system: ocular normotensive human patients with diabetic eye disease
Experiment: Phase 2 trial: IOP after subcutaneous Compound 1 alone or with intravitreal ranibizumab, diabetic macular edema
Format: in vivo
Experimental: IOP in patients were measured using a double-masked, parallel-group designed to assess the effects of subcutaneous (SC) Compound 1 (sodium salt) alone, or as an adjunct to intravitreal ranibizumab trial. 144 human subjects with diabetic retinopathy complicated by center-involved diabetic macular edema (DME) were randomized to 3 months of one of 3 treatments: 1) Compound 1 (15 mg) SC twice daily (BID) plus sham monthly intravitreal injection (IVT); 2) Compound 1 SC BID plus ranibizumab (0.3 mg) monthly IVT; and 3) Placebo SC BID+ranibizumab IVT. At baseline, mean age was 61.3±1.3 years; 59% of subjects were male; 82.6% had Type 2 diabetes; mean HBA1c was 7.5%±1.3%; mean best corrected visual acuity was 60.2 ETDRS letters (Snellen 20/63); and mean IOP was 15.7 mmHg±3.4. Ophthalmic safety assessments were performed at baseline and monthly during the 3-month treatment period including a single IOP measurement by applanation tonometry in both the study eye and the fellow eye at each time point. By protocol, all patients had baseline IOP<24 mmHg (ocular normotensive).
In the pre-specified safety analysis, change from baseline IOP was analyzed using a t-test (null hypothesis 0 change from baseline). The level of significance was set at 0.05. A post hoc analysis of the subject level IOP measure was the change from baseline in the average over both eyes within a subject for each timepoint. Statistical testing of each timepoint was completed using ANCOVA with baseline IOP (averaged over both eyes within a subject) as covariate. Additionally, statistical testing averaging across all timepoints was completed using a mixed-model repeated measures ANCOVA. The level of significance was set at 0.05.

[1] = average of study eye and fellow eye, week 4
[2] = average of study eye and fellow eye, week 8
[3] = average of study eye and fellow eye, week 12

Substance: ranibizumab [Placebo + ranibizumab, reference compound]
- Week 4 subject-level IOP change from BL, mean (SD) [1]: −0.2 (2.61) mmHg
- Week 4 subject-level IOP, mean (SD) [1]: 15.2 (3.50) mmHg
- Week 8 subject-level IOP change from BL, mean (SD) [2]: 0.2 (2.86) mmHg
- Week 8 subject-level IOP, mean (SD) [2]: 15.3 (3.31) mmHg
- Week 12 subject-level IOP change from BL, mean (SD) [3]: 0.0 (3.32) mmHg
- Week 12 subject-level IOP, mean (SD) [3]: 15.5 (3.85) mmHg
- Week 4 IOP change from BL, mean (SD) (fellow eye (FE), week 4): −0.3 (3.49) mmHg
- Week 4 IOP, mean (SD) (fellow eye (FE), week 4): 15.5 (4.85) mmHg
- Week 8 IOP change from BL, mean (SD) (fellow eye (FE), week 8): −0.3 (3.44) mmHg
- Week 8 IOP, mean (SD) (fellow eye (FE), week 8): 15.5 (4.52) mmHg
- Week 12 IOP change from BL, mean (SD) (fellow eye (FE), week 12): −0.1 (3.62) mmHg
- Week 12 IOP, mean (SD) (fellow eye (FE), week 12): 15.7 (5.19) mmHg
- Week 4 IOP change from BL, mean (SD) (study eye (SE), week 4): −0.1 (2.74) mmHg
- Week 4 IOP, mean (SD) (study eye (SE), week 4): 15.0 (3.50) mmHg
- Week 8 IOP change from BL, mean (SD) (study eye (SE), week 8): 0.0 (3.25) mmHg
- Week 8 IOP, mean (SD) (study eye (SE), week 8): 15.0 (3.61) mmHg
- Week 12 IOP change from BL, mean (SD) (study eye (SE), week 12): 0.1 (3.83) mmHg
- Week 12 IOP, mean (SD) (study eye (SE), week 12): 15.3 (4.09) mmHg
- mean change in IOP from baseline (study or fellow eye, all time points): −0.3 to +0.1 mmHg
